The results in this text go back to the supplement of paper PMC10307832.

What all share (test): relative viability (nuclei count vs DMSO), 5 days (fraction); higher = more cells survive
Compound in the assay “IU1-47 + Decitabine”: CC1=CC(=C(N1C2=CC=C(C=C2)Cl)C)C(=O)CN3CCCCC3 [IU1-47] + Nc1ncn([C@H]2C[C@H](O)[C@@H](CO)O2)c(=O)n1 [Decitabine] (partner 2 µM)
In short, it runs like this:
(§1)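 Nuclei were stained with Hoechst during a one-step fixation (final 0.05% Triton X-100, 1% formaldehyde, 1 ug/ml Hoechst) carried out 5 days after dosing, then counted on 4× images. The cells, lung cancer lines in 1536-well plates, had been dosed by pin tool the day after seeding with one drug alone or a fixed anchor-drug dose plus five library-drug doses (not always all listed) in √10 steps. Relative viability is the nuclei count in treated wells divided by that in vehicle wells, and each value is the median of duplicate plates.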

Compound in the assay “FG-4592 + Decitabine”: Cc1nc(C(=O)NCC(=O)O)c(O)c2ccc(Oc3ccccc3)cc12 [FG-4592] + Nc1ncn([C@H]2C[C@H](O)[C@@H](CO)O2)c(=O)n1 [Decitabine] (partner 2 µM)
The procedure, abridged:
as §1

Compound in the assay “IU1-47 + Foretinib”: CC1=CC(=C(N1C2=CC=C(C=C2)Cl)C)C(=O)CN3CCCCC3 [IU1-47] + COc1cc2c(Oc3ccc(NC(=O)C4(C(=O)Nc5ccc(F)cc5)CC4)cc3F)ccnc2cc1OCCCN1CCOCC1 [Foretinib] (partner 0.25 µM)
In short, it runs like this:
as §1

Compound in the assay “FG-4592 + Navitoclax”: Cc1nc(C(=O)NCC(=O)O)c(O)c2ccc(Oc3ccccc3)cc12 [FG-4592] + CC1(C)CCC(c2ccc(Cl)cc2)=C(CN2CCN(c3ccc(C(=O)NS(=O)(=O)c4ccc(N[C@H](CCN5CCOCC5)CSc5ccccc5)c(S(=O)(=O)C(F)(F)F)c4)cc3)CC2)C1 [Navitoclax] (partner 0.5 µM)
The procedure, abridged: as §1

In the case of PC-14, the relative viability with IU1-47 + Decitabine (first compound 0.08 µM) stood at 0.177; with IU1-47 + Decitabine (first compound 0.253 µM), 0.205; with IU1-47 + Decitabine (first compound 0.8 µM), 0.235; with IU1-47 + Decitabine (first compound 2.53 µM), 0.261; in the assay with IU1-47 + Decitabine (first compound 8 µM), 0.209; with FG-4592 + Decitabine (first compound 0.08 µM) it was 0.193. Besides, the relative viability was 0.243 with FG-4592 + Decitabine (first compound 0.253 µM); 0.213 with FG-4592 + Decitabine (first compound 0.8 µM); 0.195 in the assay with FG-4592 + Decitabine (first compound 2.53 µM); 0.226 with FG-4592 + Decitabine (first compound 8 µM); 1.07 in the assay with IU1-47 + Foretinib (first compound 0.08 µM); 1.03 in the assay with IU1-47 + Foretinib (first compound 0.253 µM). Also, the relative viability in the assay with IU1-47 + Foretinib (first compound 0.8 µM) was found to be 0.954; with IU1-47 + Foretinib (first compound 2.53 µM), 0.959; with IU1-47 + Foretinib (first compound 8 µM), 0.907; in the assay with FG-4592 + Navitoclax (first compound 0.08 µM) it was 1.01; with FG-4592 + Navitoclax (first compound 0.253 µM), 1.06; in the assay with FG-4592 + Navitoclax (first compound 0.8 µM), 1.08. The relative viability turned out to be 1.01 with FG-4592 + Navitoclax (first compound 2.53 µM) and 1.03 with FG-4592 + Navitoclax (first compound 8 µM).

As to RERF-LC-KJ, the relative viability is 0.784 in the assay with IU1-47 + Decitabine (first compound 0.08 µM); 0.912 in the assay with IU1-47 + Decitabine (first compound 0.253 µM); 0.673 in the assay with IU1-47 + Decitabine (first compound 0.8 µM); 0.639 in the assay with IU1-47 + Decitabine (first compound 2.53 µM); 0.578 in the assay with IU1-47 + Decitabine (first compound 8 µM); 0.811 with FG-4592 + Decitabine (first compound 0.08 µM). Also, the relative viability with FG-4592 + Decitabine (first compound 0.253 µM) worked out at 0.697; with FG-4592 + Decitabine (first compound 0.8 µM), 0.76; with FG-4592 + Decitabine (first compound 2.53 µM) it was 0.81; with FG-4592 + Decitabine (first compound 8 µM), 0.667; with IU1-47 + Foretinib (first compound 0.08 µM), 0.877; with IU1-47 + Foretinib (first compound 0.253 µM), 0.918. Further, the relative viability with IU1-47 + Foretinib (first compound 0.8 µM) is 0.922; with IU1-47 + Foretinib (first compound 2.53 µM), 0.868; with IU1-47 + Foretinib (first compound 8 µM) it was 0.893; with FG-4592 + Navitoclax (first compound 0.08 µM) it was 0.87; in the assay with FG-4592 + Navitoclax (first compound 0.253 µM), 0.691; with FG-4592 + Navitoclax (first compound 0.8 µM), 1.06. Further, the figures for the relative viability in the assay with FG-4592 + Navitoclax (first compound 2.53 µM) and with FG-4592 + Navitoclax (first compound 8 µM) were 1.07 and 0.622, respectively.

Consider SK-LU-1, for which the relative viability with IU1-47 + Decitabine (first compound 0.08 µM) came out at 0.57; in the assay with IU1-47 + Decitabine (first compound 0.253 µM), 0.695; with IU1-47 + Decitabine (first compound 0.8 µM) it was 0.692; in the assay with IU1-47 + Decitabine (first compound 2.53 µM), 0.56; with IU1-47 + Decitabine (first compound 8 µM) it was 0.543; in the assay with FG-4592 + Decitabine (first compound 0.08 µM), 0.66. Further, the relative viability with FG-4592 + Decitabine (first compound 0.253 µM) worked out at 0.55; with FG-4592 + Decitabine (first compound 0.8 µM), 0.671; with FG-4592 + Decitabine (first compound 2.53 µM), 0.582; with FG-4592 + Decitabine (first compound 8 µM), 0.476; with IU1-47 + Foretinib (first compound 0.08 µM) it was 0.855; in the assay with IU1-47 + Foretinib (first compound 0.253 µM), 0.752. For the same cell line, the relative viability was 0.879 in the assay with IU1-47 + Foretinib (first compound 0.8 µM); 0.852 with IU1-47 + Foretinib (first compound 2.53 µM); 0.868 with IU1-47 + Foretinib (first compound 8 µM); 0.72 with FG-4592 + Navitoclax (first compound 0.08 µM); 0.554 in the assay with FG-4592 + Navitoclax (first compound 0.253 µM); 0.959 with FG-4592 + Navitoclax (first compound 0.8 µM). Also, the relative viability in the assay with FG-4592 + Navitoclax (first compound 8 µM) was 0.777.

For SK-MES-1, the relative viability in the assay with IU1-47 + Decitabine (first compound 0.08 µM) was 0.329; with IU1-47 + Decitabine (first compound 0.253 µM) it was 0.405; with IU1-47 + Decitabine (first compound 0.8 µM), 0.3; with IU1-47 + Decitabine (first compound 2.53 µM) it was 0.409; with IU1-47 + Decitabine (first compound 8 µM) it was 0.38; in the assay with FG-4592 + Decitabine (first compound 0.08 µM) it was 0.369. Further, the relative viability in the assay with FG-4592 + Decitabine (first compound 0.253 µM) is 0.424; in the assay with FG-4592 + Decitabine (first compound 0.8 µM) it was 0.419; with FG-4592 + Decitabine (first compound 2.53 µM), 0.414; in the assay with FG-4592 + Decitabine (first compound 8 µM), 0.385; in the assay with IU1-47 + Foretinib (first compound 0.08 µM), 0.999; with IU1-47 + Foretinib (first compound 0.253 µM) it was 1.05. Also, the relative viability was 0.838 with IU1-47 + Foretinib (first compound 0.8 µM); 0.844 with IU1-47 + Foretinib (first compound 2.53 µM); 0.921 with IU1-47 + Foretinib (first compound 8 µM); 1.15 in the assay with FG-4592 + Navitoclax (first compound 0.08 µM); 1.18 in the assay with FG-4592 + Navitoclax (first compound 0.253 µM); 1.32 in the assay with FG-4592 + Navitoclax (first compound 0.8 µM). Also, the relative viability with FG-4592 + Navitoclax (first compound 2.53 µM) is 1.25; with FG-4592 + Navitoclax (first compound 8 µM), 1.39.

For SW 1573, the relative viability with IU1-47 + Decitabine (first compound 0.08 µM) was 0.529; in the assay with IU1-47 + Decitabine (first compound 0.253 µM), 0.599; in the assay with IU1-47 + Decitabine (first compound 0.8 µM), 0.542; with IU1-47 + Decitabine (first compound 2.53 µM) it was 0.342; in the assay with IU1-47 + Decitabine (first compound 8 µM), 0.506; with FG-4592 + Decitabine (first compound 0.08 µM) it was 0.516. The relative viability with FG-4592 + Decitabine (first compound 0.253 µM) was determined as 0.505; in the assay with FG-4592 + Decitabine (first compound 0.8 µM) it was 0.537; in the assay with FG-4592 + Decitabine (first compound 2.53 µM), 0.482; with FG-4592 + Decitabine (first compound 8 µM), 0.447; with IU1-47 + Foretinib (first compound 0.08 µM), 1.03; with IU1-47 + Foretinib (first compound 0.253 µM), 0.965. For the same cell line, the relative viability with IU1-47 + Foretinib (first compound 0.8 µM) worked out at 1.11; in the assay with IU1-47 + Foretinib (first compound 2.53 µM), 0.749; with IU1-47 + Foretinib (first compound 8 µM), 1.02; in the assay with FG-4592 + Navitoclax (first compound 0.08 µM) it was 0.771; with FG-4592 + Navitoclax (first compound 0.253 µM), 0.933; with FG-4592 + Navitoclax (first compound 0.8 µM) it was 1.02. The relative viability with FG-4592 + Navitoclax (first compound 2.53 µM) amounted to 0.937; with FG-4592 + Navitoclax (first compound 8 µM) it was 0.803.

UMC-11: the relative viability in the assay with IU1-47 + Decitabine (first compound 0.08 µM) is 0.664; in the assay with IU1-47 + Decitabine (first compound 0.253 µM), 0.622; with IU1-47 + Decitabine (first compound 0.8 µM), 0.571; in the assay with IU1-47 + Decitabine (first compound 2.53 µM), 0.581; with IU1-47 + Decitabine (first compound 8 µM), 0.717; with FG-4592 + Decitabine (first compound 0.08 µM), 0.54. Besides, the relative viability amounted to 0.604 with FG-4592 + Decitabine (first compound 0.253 µM); 0.532 with FG-4592 + Decitabine (first compound 0.8 µM); 0.423 in the assay with FG-4592 + Decitabine (first compound 2.53 µM); 0.365 with FG-4592 + Decitabine (first compound 8 µM); 1.13 in the assay with IU1-47 + Foretinib (first compound 0.08 µM); 0.99 with IU1-47 + Foretinib (first compound 0.253 µM). The relative viability in the assay with IU1-47 + Foretinib (first compound 0.8 µM) was 1.25; with IU1-47 + Foretinib (first compound 2.53 µM) it was 1.15; with IU1-47 + Foretinib (first compound 8 µM) it was 1.13; with FG-4592 + Navitoclax (first compound 0.08 µM), 0.391; in the assay with FG-4592 + Navitoclax (first compound 0.253 µM), 0.321; with FG-4592 + Navitoclax (first compound 0.8 µM), 0.29. Besides, the relative viability is 0.312 with FG-4592 + Navitoclax (first compound 2.53 µM) and 0.274 with FG-4592 + Navitoclax (first compound 8 µM).
